# According to US20080009418A1, “Selective Inhibitors” (Alchemia LTD., priority 2004, published 2008):
# Tests used:
# [1] = target: T1, Human melanin-concentrating hormone (MCH1) (Homo sapiens, UniProt Q99705); assay: Radioligand binding, human melanin-concentrating hormone MCH1 membranes, FlashPlate, [125I]-S36057; details: compound at 10 μM; for A6 radioligand binding inhibition: human MCH1 membranes
# T1 construct: purchased Perkin Elmer Biosignal
# In short: (§1)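 Cloned human receptor membranes were coated onto FlashPlate wells and incubated with radioligand and compound (added from a 0.5 mM DMSO daughter plate) for 1 hour at room temperature in the dark. Scintillation counting gave percent inhibition, with DMSO defining total and reference ligand defining non-specific binding.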
# [2] = target: T2, Human neuropeptide Y (NPY-Y1) (Homo sapiens, UniProt P25929); assay: Radioligand binding, human neuropeptide Y NPY-Y1 membranes, FlashPlate, [125I]-PYY; details: compound at 10 μM; for A9 radioligand binding inhibition: human NPY-Y1 membranes
# T2 construct: purchased Perkin Elmer Biosignal
# T2 sequence (P25929 1-384): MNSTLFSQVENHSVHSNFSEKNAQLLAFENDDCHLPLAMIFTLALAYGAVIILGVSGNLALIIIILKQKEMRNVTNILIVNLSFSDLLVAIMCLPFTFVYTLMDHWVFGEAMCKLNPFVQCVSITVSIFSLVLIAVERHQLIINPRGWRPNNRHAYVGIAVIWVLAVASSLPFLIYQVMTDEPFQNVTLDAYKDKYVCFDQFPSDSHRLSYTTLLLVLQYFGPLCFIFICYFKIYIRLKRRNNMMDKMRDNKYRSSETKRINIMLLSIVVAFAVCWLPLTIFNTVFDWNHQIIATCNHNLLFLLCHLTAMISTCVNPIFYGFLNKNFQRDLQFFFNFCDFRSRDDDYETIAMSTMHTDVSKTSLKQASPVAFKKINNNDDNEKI
# In short: as §1
# [3] = target: T3, Human κ-Opioid (KOP) (Homo sapiens, UniProt P41145); assay: Radioligand binding, human κ-opioid (KOP) membranes, filtration, [3H]-Diprenorphine; details: compound at 10 μM; for A2 radioligand binding inhibition: human κ-opioid (KOP) membranes
# T3 construct: purchased Perkin Elmer Biosignal
# T3 sequence (P41145 whole entry): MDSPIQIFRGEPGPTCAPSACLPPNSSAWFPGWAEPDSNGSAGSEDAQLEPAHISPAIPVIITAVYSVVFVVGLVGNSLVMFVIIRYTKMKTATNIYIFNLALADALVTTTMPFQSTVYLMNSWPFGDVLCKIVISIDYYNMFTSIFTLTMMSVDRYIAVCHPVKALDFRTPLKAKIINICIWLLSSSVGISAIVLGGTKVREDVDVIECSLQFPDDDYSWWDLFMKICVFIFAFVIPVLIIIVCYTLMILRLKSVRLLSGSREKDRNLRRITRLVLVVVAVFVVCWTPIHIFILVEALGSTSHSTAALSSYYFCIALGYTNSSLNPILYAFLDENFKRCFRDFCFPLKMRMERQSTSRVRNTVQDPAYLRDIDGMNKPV
# In short: (§2)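 Percent inhibition of radioligand binding measured on recombinant human membranes: NK1 with [125I]-Substance P, KOP with [3H]-Diprenorphine. Incubation 1 h at room temperature, then harvest onto 0.3% PEI-soaked filters, cold Tris-HCl pH 7.4 washes and scintillation counting; non-specific binding from reference ligand wells.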
# [4] = target: T4, Human Melanocortin (MC4) (Homo sapiens, UniProt P32245); assay: Radioligand binding, human melanocortin MC4 membranes, FlashPlate, [125I]-NDP-αMSH; details: compound at 10 μM; for A4 radioligand binding inhibition: human melanocortin MC4 membranes
# T4 construct: purchased Perkin Elmer Biosignal
# T4 sequence (P32245 whole entry): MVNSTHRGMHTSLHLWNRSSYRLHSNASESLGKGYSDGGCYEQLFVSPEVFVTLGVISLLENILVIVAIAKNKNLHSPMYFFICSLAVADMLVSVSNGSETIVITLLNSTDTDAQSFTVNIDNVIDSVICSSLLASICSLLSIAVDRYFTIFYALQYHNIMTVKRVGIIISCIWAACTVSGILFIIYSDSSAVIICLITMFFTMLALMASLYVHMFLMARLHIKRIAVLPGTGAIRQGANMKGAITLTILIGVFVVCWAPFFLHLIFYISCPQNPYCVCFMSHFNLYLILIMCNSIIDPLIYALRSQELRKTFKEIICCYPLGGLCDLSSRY
# In short: as §1
# [5] = target: T5, Mouse urotensin (mUR2) (Mus musculus, UniProt Q8VIH9); assay: Radioligand binding, mouse urotensin mUR2 membranes, FlashPlate, [125I]-Urotensin II; details: compound at 10 μM; for A11 radioligand binding inhibition: mouse urotensin mUR2 membranes
# T5 construct: purchased Perkin Elmer Biosignal
# T5 sequence (Q8VIH9 1-385): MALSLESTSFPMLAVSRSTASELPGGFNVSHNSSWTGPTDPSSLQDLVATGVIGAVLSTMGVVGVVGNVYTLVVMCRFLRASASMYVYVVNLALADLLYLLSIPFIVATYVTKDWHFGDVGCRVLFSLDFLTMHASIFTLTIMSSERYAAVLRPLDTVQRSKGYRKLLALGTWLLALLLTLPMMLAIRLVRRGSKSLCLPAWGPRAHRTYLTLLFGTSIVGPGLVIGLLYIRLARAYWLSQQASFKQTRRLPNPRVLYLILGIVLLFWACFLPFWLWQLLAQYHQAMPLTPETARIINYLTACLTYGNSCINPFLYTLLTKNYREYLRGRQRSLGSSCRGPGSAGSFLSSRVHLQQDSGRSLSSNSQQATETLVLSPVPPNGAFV
# In short: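 Cloned mouse urotensin (mUR2) receptor membranes from Perkin Elmer Biosignal were immobilized in FlashPlate microplates using a proprietary coating. Each well got 19.5 μl buffer, then 0.5 μl of DMSO, reference ligand, or compound. Adding 5 μl of [125I]-Urotensin II, diluted to 5× final concentration in binding buffer, started binding. Plates were sealed with TopSeal-A and incubated 1 hour at room temperature in the dark. Wells were counted for 30 seconds each on a TopCount after a 60-second delay, and percentage inhibition was calculated.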
# [6] = target: T6, Human δ-opioid (DOP) (Homo sapiens, UniProt P41143); assay: Radioligand binding, human δ-opioid (DOP) membranes, FlashPlate, [3H]-Bremazocine; details: compound at 10 μM; for A1 radioligand binding inhibition: human δ-opioid (DOP) membranes
# T6 construct: purchased Perkin Elmer Biosignal
# T6 sequence (P41143 whole entry): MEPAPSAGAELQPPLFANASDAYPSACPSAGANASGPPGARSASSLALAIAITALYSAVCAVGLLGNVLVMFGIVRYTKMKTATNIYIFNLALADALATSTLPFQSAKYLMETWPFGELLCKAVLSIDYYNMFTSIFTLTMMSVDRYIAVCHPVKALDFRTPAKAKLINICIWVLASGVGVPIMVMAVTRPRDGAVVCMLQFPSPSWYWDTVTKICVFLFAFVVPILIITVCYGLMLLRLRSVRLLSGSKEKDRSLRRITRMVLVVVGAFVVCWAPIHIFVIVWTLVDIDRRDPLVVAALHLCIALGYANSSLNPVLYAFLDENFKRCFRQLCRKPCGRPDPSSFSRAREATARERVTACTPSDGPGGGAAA
# In short: as §1
# [7] = target: T7, Human Melanocortin (MC3) (Homo sapiens, UniProt P41968); assay: Radioligand binding, human melanocortin MC3 membranes, FlashPlate, [125I]-NDP-αMSH; details: compound at 10 μM; for A3 radioligand binding inhibition: human melanocortin MC3 membranes
# T7 construct: purchased Perkin Elmer Biosignal
# T7 sequence (P41968 whole entry): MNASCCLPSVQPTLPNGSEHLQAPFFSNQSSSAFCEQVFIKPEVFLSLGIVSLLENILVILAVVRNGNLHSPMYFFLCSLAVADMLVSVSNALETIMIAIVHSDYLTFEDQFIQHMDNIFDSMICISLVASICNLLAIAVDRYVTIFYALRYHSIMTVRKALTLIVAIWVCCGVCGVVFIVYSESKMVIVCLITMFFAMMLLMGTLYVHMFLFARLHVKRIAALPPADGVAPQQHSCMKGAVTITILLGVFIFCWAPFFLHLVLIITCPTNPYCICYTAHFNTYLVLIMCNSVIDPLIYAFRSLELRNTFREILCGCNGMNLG
# In short: as §1
# [8] = target: T8, Human μ-opioid (MOP) (Homo sapiens, UniProt P35372); assay: Radioligand binding, human μ-opioid (MOP) membranes, FlashPlate, [3H]-Naloxone; details: compound at 10 μM; for A7 radioligand binding inhibition: human μ-opioid (MOP) membranes
# T8 construct: purchased Perkin Elmer Biosignal
# T8 sequence (P35372 whole entry): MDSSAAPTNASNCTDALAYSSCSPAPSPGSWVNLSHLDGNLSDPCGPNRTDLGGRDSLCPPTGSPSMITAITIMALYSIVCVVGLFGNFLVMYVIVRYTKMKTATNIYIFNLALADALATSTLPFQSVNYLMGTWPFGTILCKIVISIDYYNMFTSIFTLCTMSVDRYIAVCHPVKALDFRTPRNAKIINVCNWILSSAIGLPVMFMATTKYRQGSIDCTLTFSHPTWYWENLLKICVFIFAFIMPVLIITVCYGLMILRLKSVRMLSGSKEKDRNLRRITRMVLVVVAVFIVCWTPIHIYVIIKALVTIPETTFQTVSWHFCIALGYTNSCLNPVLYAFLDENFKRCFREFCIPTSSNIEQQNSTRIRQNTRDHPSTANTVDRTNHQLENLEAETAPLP
# In short: as §1
# [9] = target: T9, Human neurokinin (NK1) (Homo sapiens, UniProt P25103); assay: Radioligand binding, human neurokinin NK1 membranes, filtration, [125I]-Substance P; details: compound at 10 μM; for A8 radioligand binding inhibition: human neurokinin NK1 membranes
# T9 construct: purchased Perkin Elmer Biosignal
# T9 sequence (P25103 whole entry): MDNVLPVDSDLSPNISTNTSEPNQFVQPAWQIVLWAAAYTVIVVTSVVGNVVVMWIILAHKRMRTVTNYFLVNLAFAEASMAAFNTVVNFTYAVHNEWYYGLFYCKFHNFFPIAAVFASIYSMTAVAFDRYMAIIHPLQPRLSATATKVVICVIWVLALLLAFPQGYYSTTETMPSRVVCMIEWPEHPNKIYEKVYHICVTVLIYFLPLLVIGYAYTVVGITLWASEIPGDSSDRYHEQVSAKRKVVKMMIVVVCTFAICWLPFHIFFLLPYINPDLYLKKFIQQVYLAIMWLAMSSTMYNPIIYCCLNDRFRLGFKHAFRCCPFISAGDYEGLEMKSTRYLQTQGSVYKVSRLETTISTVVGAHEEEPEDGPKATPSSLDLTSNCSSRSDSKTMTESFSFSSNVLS
# In short: as §2
# [10] = target: T10, Human melanocortin (MC5) (Homo sapiens, UniProt P33032); assay: Radioligand binding, human melanocortin MC5 membranes, FlashPlate, [125I]-NDP-αMSH; details: compound at 10 μM; for A5 radioligand binding inhibition: human melanocortin MC5 membranes
# T10 construct: purchased Perkin Elmer Biosignal
# T10 sequence (P33032 whole entry): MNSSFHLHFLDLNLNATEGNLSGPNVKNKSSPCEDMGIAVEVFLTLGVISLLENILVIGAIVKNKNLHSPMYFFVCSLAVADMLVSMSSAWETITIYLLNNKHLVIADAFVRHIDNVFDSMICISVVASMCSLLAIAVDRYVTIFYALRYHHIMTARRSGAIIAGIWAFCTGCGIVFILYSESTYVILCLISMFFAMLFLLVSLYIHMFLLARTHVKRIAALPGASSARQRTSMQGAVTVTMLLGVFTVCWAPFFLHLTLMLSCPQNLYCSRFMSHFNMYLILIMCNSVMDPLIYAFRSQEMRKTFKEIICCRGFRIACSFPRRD
# In short: as §1
# [11] = target: T11, Human opioid (ORL1) (Homo sapiens, UniProt P41146); assay: Radioligand binding, human opioid ORL1 membranes, FlashPlate, [125I]-Nociceptin; details: compound at 10 μM; for A10 radioligand binding inhibition: human ORL1 membranes
# T11 construct: purchased Perkin Elmer Biosignal
# T11 sequence (P41146 whole entry): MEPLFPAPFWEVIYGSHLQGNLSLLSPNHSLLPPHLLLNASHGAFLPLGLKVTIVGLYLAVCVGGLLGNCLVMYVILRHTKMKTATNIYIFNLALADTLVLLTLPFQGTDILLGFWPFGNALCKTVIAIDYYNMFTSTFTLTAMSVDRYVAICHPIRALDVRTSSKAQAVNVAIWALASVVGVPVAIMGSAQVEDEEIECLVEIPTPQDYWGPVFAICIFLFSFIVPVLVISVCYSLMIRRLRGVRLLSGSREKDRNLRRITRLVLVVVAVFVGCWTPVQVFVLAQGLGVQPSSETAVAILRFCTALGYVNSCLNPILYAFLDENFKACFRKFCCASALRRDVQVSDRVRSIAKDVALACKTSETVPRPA
# In short: as §1
# T1 sequence (Q99705 whole entry): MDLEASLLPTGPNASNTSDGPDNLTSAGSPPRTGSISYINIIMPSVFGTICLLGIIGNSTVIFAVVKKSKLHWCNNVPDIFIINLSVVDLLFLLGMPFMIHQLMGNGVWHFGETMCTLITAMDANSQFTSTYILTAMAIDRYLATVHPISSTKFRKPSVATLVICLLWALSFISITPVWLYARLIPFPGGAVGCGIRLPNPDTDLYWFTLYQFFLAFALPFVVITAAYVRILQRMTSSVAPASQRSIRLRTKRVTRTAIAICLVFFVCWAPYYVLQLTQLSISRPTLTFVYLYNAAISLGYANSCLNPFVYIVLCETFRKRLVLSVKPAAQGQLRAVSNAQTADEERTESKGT
Compound,A6 radioligand binding inhibition [1],A9 radioligand binding inhibition [2],A2 radioligand binding inhibition [3],A4 radioligand binding inhibition [4],A11 radioligand binding inhibition [5],A1 radioligand binding inhibition [6],A3 radioligand binding inhibition [7],A7 radioligand binding inhibition [8],A8 radioligand binding inhibition [9],A5 radioligand binding inhibition [10],A10 radioligand binding inhibition [11],further results
COC[C@H]1OC(OCCc2ccccc2)[C@H](NC(=O)CNC(=N)N)[C@@H](OCc2ccc3ccccc3c2)[C@@H]1O (stereo partly shown) [compound 44],− (“−” indicates less than 50% inhibition at 10 μM),− (“−” indicates less than 50% inhibition at 10 μM),− (“−” indicates less than 50% inhibition at 10 μM),+ (“+” indicates greater than 50% inhibition at 10 μM),− (“−” indicates less than 50% inhibition at 10 μM),− (“−” indicates less than 50% inhibition at 10 μM),− (“−” indicates less than 50% inhibition at 10 μM),− (“−” indicates less than 50% inhibition at 10 μM),− (“−” indicates less than 50% inhibition at 10 μM),+ (“+” indicates greater than 50% inhibition at 10 μM),− (“−” indicates less than 50% inhibition at 10 μM),
CO[C@H]1[C@H](O)[C@@H](COCc2ccc(Cl)cc2)OC(OCc2ccc3ccccc3c2)[C@@H]1NC(=O)CNC(=N)N (stereo partly shown) [compound 78],− (“−” indicates less than 50% inhibition at 10 μM),− (“−” indicates less than 50% inhibition at 10 μM),− (“−” indicates less than 50% inhibition at 10 μM),− (“−” indicates less than 50% inhibition at 10 μM),− (“−” indicates less than 50% inhibition at 10 μM),− (“−” indicates less than 50% inhibition at 10 μM),− (“−” indicates less than 50% inhibition at 10 μM),− (“−” indicates less than 50% inhibition at 10 μM),+ (“+” indicates greater than 50% inhibition at 10 μM),+ (“+” indicates greater than 50% inhibition at 10 μM),− (“−” indicates less than 50% inhibition at 10 μM),
COC[C@H]1OC(OCc2ccc3ccccc3c2)[C@H](NC(=O)CCNC(=N)N)[C@@H](OCc2ccc3ccccc3c2)[C@@H]1O (stereo partly shown) [compound 18],+ (“+” indicates greater than 50% inhibition at 10 μM),− (“−” indicates less than 50% inhibition at 10 μM),− (“−” indicates less than 50% inhibition at 10 μM),− (“−” indicates less than 50% inhibition at 10 μM),− (“−” indicates less than 50% inhibition at 10 μM),− (“−” indicates less than 50% inhibition at 10 μM),− (“−” indicates less than 50% inhibition at 10 μM),+ (“+” indicates greater than 50% inhibition at 10 μM),+ (“+” indicates greater than 50% inhibition at 10 μM),+ (“+” indicates greater than 50% inhibition at 10 μM),− (“−” indicates less than 50% inhibition at 10 μM),
CO[C@H]1[C@H](O)[C@@H](COCc2ccc3ccccc3c2)OC(OCc2ccc(Cl)cc2)[C@@H]1NC(=O)C1CCCN1 (stereo partly shown) [compound 352],,,,,,,,,,,,"A6: inhibition of radioligand binding, human melanin-concentrating hormone (MCH1) ([1]; [125I]-S36057): − (“−” indicates less than 50% inhibition at 10 μM); A9: inhibition of radioligand binding, human neuropeptide Y (NPY-Y1) ([2]; [125I]-PYY): − (“−” indicates less than 50% inhibition at 10 μM); A2: inhibition of radioligand binding, human κ-opioid (KOP) ([3]; [3H]-Diprenorphine): − (“−” indicates less than 50% inhibition at 10 μM); A4: inhibition of radioligand binding, human melanocortin (MC4) ([4]; [125I]-NDP-αMSH): − (“−” indicates less than 50% inhibition at 10 μM); A11: inhibition of radioligand binding, mouse urotensin (mUR2) ([5]; [125I]-Urotensin II): − (“−” indicates less than 50% inhibition at 10 μM); A1: inhibition of radioligand binding, human δ-opioid (DOP) ([6]; [3H]-Bremazocine): − (“−” indicates less than 50% inhibition at 10 μM); A3: inhibition of radioligand binding, human melanocortin (MC3) ([7]; [125I]-NDP-αMSH): − (“−” indicates less than 50% inhibition at 10 μM); A7: inhibition of radioligand binding, human μ-opioid (MOP) ([8]; [3H]-Naloxone): − (“−” indicates less than 50% inhibition at 10 μM); A8: inhibition of radioligand binding, human neurokinin (NK1) ([9]; [125I]-Substance P): + (“+” indicates greater than 50% inhibition at 10 μM); A5: inhibition of radioligand binding, human melanocortin (MC5) ([10]; [125I]-NDP-αMSH): − (“−” indicates less than 50% inhibition at 10 μM); A10: inhibition of radioligand binding, human opioid (ORL1) ([11]; [125I]-Nociceptin): − (“−” indicates less than 50% inhibition at 10 μM)"
COC[C@H]1OC(OCc2ccccc2)[C@H](NC(=O)CNC(=N)N)[C@@H](OCc2ccc(Cl)cc2)[C@@H]1O (stereo partly shown) [compound 27],− (“−” indicates less than 50% inhibition at 10 μM),− (“−” indicates less than 50% inhibition at 10 μM),− (“−” indicates less than 50% inhibition at 10 μM),− (“−” indicates less than 50% inhibition at 10 μM),− (“−” indicates less than 50% inhibition at 10 μM),− (“−” indicates less than 50% inhibition at 10 μM),− (“−” indicates less than 50% inhibition at 10 μM),− (“−” indicates less than 50% inhibition at 10 μM),− (“−” indicates less than 50% inhibition at 10 μM),+ (“+” indicates greater than 50% inhibition at 10 μM),− (“−” indicates less than 50% inhibition at 10 μM),
